# Experimental data as given in patent US20170314074A1, “LPA-ASSOCIATED PROTEIN AND RNA EXPRESSION” (Intermune, Inc., priority 2014, published 2017).
# System: normal human lung fibroblasts
# Experiment: mRNA expression after LPA induction, Affymetrix Human Gene ST arrays, fibroblasts (Table 4A)
# Type: cell-based
# Conditions: LPA-induced fibroblasts; 1 μM BMS-986020; average of 3 experiments
# Experimental: Changes in gene expression after 3 hours of LPA induction were profiled on Affymetrix Human Gene ST 2.0 microarrays; differentially expressed genes identified by ANOVA with FDR <0.05 and fold-change >1.2. Process networks associated with differentially expressed genes were defined using MetaCore. Changes in secreted protein expression after 24 hours of LPA induction were profiled on an aptamer-based proteomic platform (1129 proteins); differentially expressed proteins identified by t-test.
# Total RNA was isolated from normal human lung fibroblasts, human bronchial epithelial cells, and human pulmonary alveolar epithelial cells treated for […] with LPA and/or LPAR1 inhibitor. Each treatment condition was assayed in triplicate. Samples were profiled on Affymetrix Human Gene ST Arrays 1.0 and/or 2.0 after preparation using the Ambion WT Expression Kit according to manufacturers' instructions.
# Data normalization and all subsequent analyses were performed in Partek Genomics Suite (Partek, St. Louis, Mo.). Data were normalized using the Robust Multi-array Average (RMA) algorithm. Differentially expressed genes were identified by ANOVA with correction for multiple comparisons with p-value with FDR<0.05. A fold-change cut-off was not strictly applied, although the majority of the differentially expressed genes identified have fold-changes greater than 1.2. Genes were included if they were statistically significant for (1) LPA-induction and (2) response to treatment with an LPAR1 inhibitor.
# In Tables 1-5 The differentially expressed secreted proteins set forth in Tables 1, 2, and 5 and the differentially expressed mRNAs set forth in Table 3 and 4 were identified by visual inspection of individual dot-plots.
# For the gene and protein expression analysis primary fibroblasts (NHLF product #CC-2512 from Lonza group LTD) and primary epithelial cells (NHBE Product #CC-2540 from Lonza; HPAEpiC Product #3200 from Sciencell (USA, California)) were cultured as recommended by the manufacturer, except they were cultured on collagen coated plates. As part of the induction protocol cells were starved overnight in low (0.2 or 0.1% serum) or no serum (0%), prior to stimulation with LPA.
smiles,measurement,value
Cc1noc(-c2ccc(-c3ccc(C4(C(=O)O)CC4)cc3)cc2)c1NC(=O)O[C@H](C)c1ccccc1 [BMS-986020],"Effect of 1 μM BMS-986020 relative to induced cells (fold-change), BIRC3 mRNA",−3.33 fold-change
same,"Effect of 1 μM BMS-986020 relative to induced cells (fold-change), CHIC2 mRNA",−2.40 fold-change
same,"Effect of 1 μM BMS-986020 relative to induced cells (fold-change), CNST mRNA",−2.32 fold-change
same,"Effect of 1 μM BMS-986020 relative to induced cells (fold-change), CTGF mRNA",−4.62 fold-change
same,"Effect of 1 μM BMS-986020 relative to induced cells (fold-change), CYR61 mRNA",−7.53 fold-change
same,"Effect of 1 μM BMS-986020 relative to induced cells (fold-change), DKK1 mRNA",−6.16 fold-change
same,"Effect of 1 μM BMS-986020 relative to induced cells (fold-change), DUSP1 mRNA",−2.56 fold-change
same,"Effect of 1 μM BMS-986020 relative to induced cells (fold-change), EFNB2 mRNA",−2.63 fold-change
same,"Effect of 1 μM BMS-986020 relative to induced cells (fold-change), GPR37 mRNA",−3.13 fold-change
same,"Effect of 1 μM BMS-986020 relative to induced cells (fold-change), HAS2 mRNA",−2.89 fold-change
same,"Effect of 1 μM BMS-986020 relative to induced cells (fold-change), HBEGF mRNA",−5.41 fold-change
same,"Effect of 1 μM BMS-986020 relative to induced cells (fold-change), IER3 mRNA",−3.28 fold-change
same,"Effect of 1 μM BMS-986020 relative to induced cells (fold-change), IL6 mRNA",−4.08 fold-change
same,"Effect of 1 μM BMS-986020 relative to induced cells (fold-change), KPRP mRNA",−3.81 fold-change
same,"Effect of 1 μM BMS-986020 relative to induced cells (fold-change), KRTAP1-5 mRNA",−6.89 fold-change
same,"Effect of 1 μM BMS-986020 relative to induced cells (fold-change), KRTAP4-12 mRNA",−3.90 fold-change
same,"Effect of 1 μM BMS-986020 relative to induced cells (fold-change), LIF mRNA",−5.07 fold-change
same,"Effect of 1 μM BMS-986020 relative to induced cells (fold-change), MCP-1/CCL2 mRNA",−5.99 fold-change
same,"Effect of 1 μM BMS-986020 relative to induced cells (fold-change), MIR218-1",−2.82 fold-change
same,"Effect of 1 μM BMS-986020 relative to induced cells (fold-change), PAI-1 mRNA",−2.43 fold-change
same,"Effect of 1 μM BMS-986020 relative to induced cells (fold-change), PDCD1LG2 mRNA",−2.51 fold-change
same,"Effect of 1 μM BMS-986020 relative to induced cells (fold-change), PTX3 mRNA",−2.49 fold-change
same,"Effect of 1 μM BMS-986020 relative to induced cells (fold-change), SERPINB2 mRNA",−2.64 fold-change
same,"Effect of 1 μM BMS-986020 relative to induced cells (fold-change), TNFAIP3 mRNA",−3.68 fold-change
same,"Effect of 1 μM BMS-986020 relative to induced cells (fold-change), TXNIP mRNA",4.41 fold-change
same,"Effect of 1 μM BMS-986020 relative to induced cells (fold-change), UGCG mRNA",−2.52 fold-change
same,"Effect of 1 μM BMS-986020 relative to induced cells (fold-change), VGLL3 mRNA",−2.97 fold-change
